In ChEMBL document CHEMBL3797052 (Eur J Med Chem, 2016):

Columns and labels:
SR = experiment: Antiproliferative activity against human SR cells assessed as cell growth at 10^-7 M after 48 hrs by sulforhodamine B assay; type: functional; conditions: read-out: Activity
[1] = Antiproliferative activity against human SNB19 cells assessed as cell growth at 10^-7 M after 48 hrs by sulforhodamine B assay; type: functional; conditions: SNB-19, 48 h, read-out: Activity
MDA-MB-468 = experiment: Antiproliferative activity against human MDA-MB-468 cells assessed as cell growth at 10^-6 M after 48 hrs by sulforhodamine B assay; type: functional; conditions: MDA-MB-468, 48 h, read-out: Activity
SK-MEL-28 [2] = experiment: Antiproliferative activity against human SK-MEL-28 cells assessed as growth inhibition after 48 hrs by sulforhodamine B assay; type: functional; conditions: SK-MEL-28, 48 h
M14 = experiment: Antiproliferative activity against human M14 cells assessed as growth inhibition after 48 hrs by sulforhodamine B assay; type: functional; conditions: M14, 48 h
SK-MEL-28 [3] = experiment: Antiproliferative activity against human SK-MEL-28 cells assessed as cell growth at 10^-7 M after 48 hrs by sulforhodamine B assay; type: functional; conditions: SK-MEL-28, 48 h, read-out: Activity
[4] = Antiproliferative activity against human OVCAR4 cells assessed as cell growth at 10^-7 M after 48 hrs by sulforhodamine B assay; type: functional; conditions: OVCAR-4, 48 h, read-out: Activity
[5] = Antiproliferative activity against human OVCAR8 cells assessed as cell growth at 10^-7 M after 48 hrs by sulforhodamine B assay; type: functional; conditions: OVCAR-8, 48 h, read-out: Activity
[6] = Antiproliferative activity against human RXF393 cells assessed as cell growth at 10^-7 M after 48 hrs by sulforhodamine B assay; type: functional; conditions: RXF 393, 48 h, read-out: Activity
U-251 = experiment: Antiproliferative activity against human U251 cells assessed as growth inhibition after 48 hrs by sulforhodamine B assay; type: functional; conditions: U-251, 48 h
[7] = Antiproliferative activity against human HCC2998 cells assessed as growth inhibition after 48 hrs by sulforhodamine B assay; type: functional; conditions: HCC 2998, 48 h
NCI-H322M [8] = experiment: Antiproliferative activity against human NCI-H322M cells assessed as growth inhibition after 48 hrs by sulforhodamine B assay; type: functional
NCI-H23 = experiment: Antiproliferative activity against human NCI-H23 cells assessed as growth inhibition after 48 hrs by sulforhodamine B assay; type: functional; conditions: NCI-H23, 48 h
EKVX = experiment: Antiproliferative activity against human EKVX cells assessed as growth inhibition after 48 hrs by sulforhodamine B assay; type: functional
CYP2C19 = CYP2C19 (Homo sapiens, UniProt P33261); experiment: Inhibition of recombinant human CYP2C19 assessed as remaining enzyme activity at 10 uM after 5 mins in presence of NADP by fluorescence plate reader analysis; type: ADME; conditions: read-out: Activity
[9] = Antiproliferative activity against human HL-60(TB) cells assessed as cell growth at 10^-8 M after 48 hrs by sulforhodamine B assay; type: functional; conditions: HL-60, 48 h, read-out: Activity
A549 = experiment: Antiproliferative activity against human A549/ATCC cells assessed as cell growth at 10^-8 M after 48 hrs by sulforhodamine B assay; type: functional; conditions: A549, 48 h, read-out: Activity
NCI-H322M [10] = experiment: Antiproliferative activity against human NCI-H322M cells assessed as cell growth at 10^-8 M after 48 hrs by sulforhodamine B assay; type: functional; conditions: read-out: Activity
[11] = Antiproliferative activity against human HCT15 cells assessed as cell growth at 10^-8 M after 48 hrs by sulforhodamine B assay; type: functional; conditions: HCT-15, 48 h, read-out: Activity
[12] = Antiproliferative activity against human HL-60(TB) cells assessed as cell growth at 10^-6 M after 48 hrs by sulforhodamine B assay; type: functional; conditions: HL-60, 48 h, read-out: Activity
[13] = Antiproliferative activity against human SF539 cells assessed as cell growth at 10^-6 M after 48 hrs by sulforhodamine B assay; type: functional; conditions: SF-539, 48 h, read-out: Activity
CCRF-CEM = experiment: Antiproliferative activity against human CCRF-CEM cells assessed as cell growth at 10^-4 M after 48 hrs by sulforhodamine B assay; type: functional; conditions: read-out: Activity
[14] = Antiproliferative activity against human HL-60(TB) cells assessed as cell growth at 10^-4 M after 48 hrs by sulforhodamine B assay; type: functional; conditions: HL-60, 48 h, read-out: Activity
[15] = Antiproliferative activity against human SF268 cells assessed as cell growth at 10^-4 M after 48 hrs by sulforhodamine B assay; type: functional; conditions: SF-268, 48 h, read-out: Activity
[16] = Antiproliferative activity against human SF539 cells assessed as cell growth at 10^-4 M after 48 hrs by sulforhodamine B assay; type: functional; conditions: SF-539, 48 h, read-out: Activity
[17] = Antiproliferative activity against human SNB19 cells assessed as cell growth at 10^-4 M after 48 hrs by sulforhodamine B assay; type: functional; conditions: SNB-19, 48 h, read-out: Activity
[18] = Antiproliferative activity against human PC3 cells assessed as cell growth at 10^-8 M after 48 hrs by sulforhodamine B assay; type: functional; conditions: PC-3, 48 h, read-out: Activity
MCF7 [19] = experiment: Antiproliferative activity against human MCF7 cells assessed as cell growth at 10^-8 M after 48 hrs by sulforhodamine B assay; type: functional; conditions: MCF7, 48 h, read-out: Activity
SK-MEL-5 = experiment: Antiproliferative activity against human SK-MEL-5 cells assessed as cell growth at 10^-6 M after 48 hrs by sulforhodamine B assay; type: functional; conditions: SK-MEL-5, 48 h, read-out: Activity
[20] = Antiproliferative activity against human IGROV1 cells assessed as cell growth at 10^-6 M after 48 hrs by sulforhodamine B assay; type: functional; conditions: IGROV-1, 48 h, read-out: Activity
[21] = Antiproliferative activity against human OVCAR3 cells assessed as cell growth at 10^-6 M after 48 hrs by sulforhodamine B assay; type: functional; conditions: OVCAR-3, 48 h, read-out: Activity
MCF7 [22] = experiment: Antiproliferative activity against human MCF7 cells assessed as cell growth at 10^-6 M after 48 hrs by sulforhodamine B assay; type: functional; conditions: MCF7, 48 h, read-out: Activity
[23] = Antiproliferative activity against human Hs 578T cells assessed as cell growth at 10^-6 M after 48 hrs by sulforhodamine B assay; type: functional; conditions: read-out: Activity
[24] = Antiproliferative activity against human UACC62 cells assessed as cell growth at 10^-4 M after 48 hrs by sulforhodamine B assay; type: functional; conditions: UACC-62, 48 h, read-out: Activity
[25] = Antiproliferative activity against human IGROV1 cells assessed as cell growth at 10^-4 M after 48 hrs by sulforhodamine B assay; type: functional; conditions: IGROV-1, 48 h, read-out: Activity
[26] = Antiproliferative activity against human Caki1 cells assessed as cell growth at 10^-4 M after 48 hrs by sulforhodamine B assay; type: functional; conditions: CAKI-1, 48 h, read-out: Activity
MCF7 [27] = experiment: Antiproliferative activity against human MCF7 cells assessed as cell growth at 10^-4 M after 48 hrs by sulforhodamine B assay; type: functional; conditions: MCF7, 48 h, read-out: Activity
[28] = read-out: LC50 (the source's name)

CYP2C19, sequence (P33261 whole entry): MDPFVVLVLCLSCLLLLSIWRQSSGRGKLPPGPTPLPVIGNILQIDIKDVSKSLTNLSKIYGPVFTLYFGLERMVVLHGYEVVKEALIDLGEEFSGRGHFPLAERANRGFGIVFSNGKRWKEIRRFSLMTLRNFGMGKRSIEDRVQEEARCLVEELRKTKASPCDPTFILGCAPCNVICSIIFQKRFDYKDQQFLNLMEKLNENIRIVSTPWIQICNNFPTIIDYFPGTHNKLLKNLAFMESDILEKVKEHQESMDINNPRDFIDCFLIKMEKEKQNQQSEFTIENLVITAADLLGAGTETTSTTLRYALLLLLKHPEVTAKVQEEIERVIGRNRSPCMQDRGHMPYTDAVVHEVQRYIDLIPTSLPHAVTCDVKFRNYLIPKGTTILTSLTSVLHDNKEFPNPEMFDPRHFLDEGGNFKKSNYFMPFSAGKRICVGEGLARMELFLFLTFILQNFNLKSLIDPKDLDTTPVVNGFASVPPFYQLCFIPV

SMILES: CNC(=O)c1cc(Oc2ccc3nc(NC(=O)Nc4cc(C(F)(F)F)cc(C(F)(F)F)c4)sc3c2)ccn1
- growth at 0.1 µM (SR): 91%
- growth at 0.1 µM [1]: 111%
- growth at 1 µM (MDA-MB-468): 22%
- GI50 (SK-MEL-28 [2]): 1.29 µM
- TGI (SK-MEL-28 [2]): 2.93 µM
- CC50 (SK-MEL-28 [2]; [28]): 6.62 µM
- GI50 (M14): 1.5 µM
- TGI (M14): 3.22 µM
- CC50 (M14; [28]): 6.9 µM
- growth at 0.1 µM (SK-MEL-28 [3]): 96%
- growth at 0.1 µM [4]: 94%
- growth at 0.1 µM [5]: 102%
- growth at 0.1 µM [6]: 91%
- GI50 (U-251): 1.02 µM
- LC50 (U-251): 4.78 µM
- TGI (U-251): 2.2 µM
- GI50 [7]: 1.33 µM
- TGI [7]: 3.23 µM
- CC50 [7, 28]: 7.85 µM
- GI50 (NCI-H322M [8]): 1.49 µM
- TGI (NCI-H322M [8]): 3.65 µM
- GI50 (NCI-H23): 0.573 µM
- LC50 (NCI-H23): 7.99 µM
- TGI (NCI-H23): 2.38 µM
- GI50 (EKVX): 1.29 µM
- TGI (EKVX): 4.56 µM
- CC50 (EKVX; [28]): 59.3 µM
- activity at 5 min, 10 µM (CYP2C19): 70.1%
- growth at 0.01 µM [9]: 110%
- growth at 0.01 µM (A549): 104%
- growth at 0.01 µM (NCI-H322M [10]): 95%
- growth at 0.01 µM [11]: 88%
- growth at 1 µM [12]: 75%
- growth at 1 µM [13]: 63%
- growth at 100 µM (CCRF-CEM): -36%
- growth at 100 µM [14]: -59%
- growth at 100 µM [15]: -91%
- growth at 100 µM [16]: -77%
- growth at 100 µM [17]: -45%
- growth at 0.01 µM [18]: 101%
- growth at 0.01 µM (MCF7 [19]): 85%
- growth at 1 µM (SK-MEL-5): 36%
- growth at 1 µM [20]: 62%
- growth at 1 µM [21]: 52%
- growth at 1 µM (MCF7 [22]): 52%
- growth at 1 µM [23]: 73%
- growth at 100 µM [24]: -73%
- growth at 100 µM [25]: -60%
- growth at 100 µM [26]: -83%
- growth at 100 µM (MCF7 [27]): -55%
